Series [1] is described as follows: Stability of ORZY-04 on drying at 45° C. in vacuum. The class given is physicochemical. As to conditions: after 168 h of drying at 45° C. in vacuum. On the procedure: A citric acid solution was prepared by charging citric acid (15.01 g, […]) and MeOH (100 mL) in a separate container and stirring for 5 min. at 20° C. The citric acid solution was then charged to the container containing the reaction solution, and the mixture was cooled to 0° C. and stirred for at least 12 h at 0° C. ORZY-04 was then isolated by filtration of the obtained suspension, and washed with MeOH (40 mL). Finally, the solids were dried at 45° C. in vacuum. Results

Details of series [2]: species or system human. As to conditions: in vivo, po. From the text:
The stability permits that the permeability of arimoclomol is high based on urinary recovery in human mass balance trial.

SMILES strings stand for the structures.

As to `[O-][n+]1cccc(/C(Cl)=N/OC[C@H](O)CN2CCCCC2)c1` [ORZY-04], the stability on drying entry in series [1] is “stable”. For the compound `[O-][n+]1cccc(C(Cl)=NOC[C@H](O)CN2CCCCC2)c1` [arimoclomol, N-{[(2R)-2-hydroxy-3-piperidin-1-ylpropyl]oxy}pyridine-3-carboximidoyl chloride 1-oxide], in series [2], the “drug-related material recovered in faeces” value was 12%.

(Values after US11707456B2, “Processes for preparing arimoclomol citrate and intermediates thereof” (KemPharm Denmark A/S, priority 2020, dated 2023).)
